Source: ChEMBL document CHEMBL4725254, “Irregularly Bridged Epipolythiodioxopiperazines and Related Analogues: Sources, Structures, and Biological Activities” (J Nat Prod, 2020)
pIC50: −log10 of the molar value. Converted amounts (≈) assume the structure as drawn. Each block holds one molecule with its values, some of them ahead of it.

Tests used:
PC-3 = assay: Antitumor activity against human PC-3 cells; assay type: functional, cell-based
CWR22R = assay: Antitumor activity against human CWR22R cells; assay type: functional, cell-based; settings: 22Rv1
LNCaP = assay: Antitumor activity against human LNCaP cells; assay type: functional, cell-based
[1] = tested on: Human immunodeficiency virus; assay: Antiviral activity against HIV; assay type: functional, organism-based; settings: Human immunodeficiency virus 1
[2] = […] activity against Eupenicillium abidjanum IFO 8939; assay type: functional; settings: Penicillium abidjanum
[3] = Cytotoxicity against mouse NS-1 cells after 72 hrs by microtitre plate assay; assay type: functional, cell-based; settings: NS1, 72 h
Jurkat = assay: Cytotoxicity against human Jurkat cells after 72 hrs by microtitre plate assay; assay type: functional, cell-based
HepG2 = assay: Growth inhibition of human HepG2 cells; assay type: functional

Compound: COc1ccc([C@H]2SS[C@@]34C[C@]5(O)[C@H](Cl)C=C[C@@H](O)[C@@H]5ON3C(=O)[C@@H]2N(C)C4=O)c(O)c1OC
- pIC50 (PC-3): 5.29
- pIC50 (CWR22R): 6.29
- pIC50 (LNCaP): 5.74

Compound: COc1ccc([C@H]2SS[C@@]34C[C@]56O[C@H]5C=C[C@@H](O)[C@@H]6ON3C(=O)[C@@H]2N(C)C4=O)c(O)c1OC
- MIC [2]: 10 µg/mL (≈ 20.2 µM)

Compound: CS[C@@]12CC3=CC=C[C@H](O)[C@H]3N1C(=O)[C@@]13C[C@@H]4[C@@H]([C@@H](O)[C@@H](C[C@@H]4O)S1)N3C2=O
- pIC50 [1]: 5.00

Compound: COc1ccc2cc(NC(=O)[C@@]34C[C@]5(O)[C@@H](C=C[C@@H](O)[C@@H]5ON3)SS4)c(=O)oc2c1OC
- pIC50 [3]: 5.00
- pIC50 (Jurkat): 5.89

Compound: COc1ccc([C@H]2SS[C@@]34C[C@]5(O)[C@H](Cl)C=C[C@@H](O)[C@@H]5ON3C(=O)[C@@H]2NC4=O)c(O)c1OC
- pIC50 (Jurkat): 5.29

Compound: CSC1c2ccccc2O[C@]12C(=O)N1O[C@]3(CCC=CC3=O)[C@@H](O)C1(SC)C(=O)N2C (stereo not given in full)
- GI50 (HepG2): 8 µM

More lines, now with the values ahead:

- pIC50 [1]: 4.80
Compound: CS[C@@]12CC3=CC=C[C@H](O)[C@H]3N1C(=O)[C@@]13C[C@H]4C(=O)C[C@@H](SS1)[C@H](O)[C@H]4N3C2=O

- pIC50 [1]: 5.00
Compound: CS[C@@]12C[C@H]3C(=O)CC[C@H](O)[C@H]3N1C(=O)[C@@]13C[C@@H]4[C@@H]([C@@H](O)C=C[C@@H]4S1)N3C2=O

- pIC50 [1]: 5.00
Compound: CS[C@@]12CC3=CC=C[C@H](O)[C@H]3N1C(=O)[C@@]13C[C@H]4C(=O)C[C@@H](S1)[C@H](O)[C@H]4N3C2=O

- pIC50 [1]: 5.00
Compound: CS[C@@]12CC3=CC=C[C@H](O)[C@H]3N1C(=O)[C@]13C[C@H]4C(=O)[C@H](C[C@H](O)[C@H]4N1C2=O)S3

- pIC50 [1]: 5.00
Compound: CS[C@@]12C[C@H]3C(=O)CC[C@H](O)[C@H]3N1C(=O)[C@@]13C[C@@H]4[C@@H]([C@@H](O)[C@@H](C[C@@H]4O)S1)N3C2=O

- pIC50 [1]: 5.00
Compound: CS[C@@]12C[C@H]3C(=O)CC[C@H](O)[C@H]3N1C(=O)[C@@]13C[C@H]4C(=O)C[C@@H](S1)[C@H](O)[C@H]4N3C2=O [EPICOCCIN O]
